Tests used:
[1] = tested on: formation of ET-1 from Big-ET-1; assay: In vivo inhibition of the Big-ET-1-induced blood pressure increase in anaesthetised rats, i.v. single dose; parameters: species or system Rats (Sprague-Dawley); details: Rattus norvegicus, iv, 5 min before 0.5 nmol/kg Big-ET-1, negative values indicate inhibition, read-out: % substance-related inhibition of the maximum Big-ET effect on SAP vs. control; for change in vivo at 3 µmol/kg: 3 μmol/kg; for change in vivo at 10 µmol/kg: 10 μmol/kg
Text: 3. In Vivo Investigation of the Inhibitory Action of the Substances on the Formation of ET-1 from Big-ET-1 in Rats
ET-1 is an endogenous substance with strong vasoconstrictive effect. An increase in the ET-1 level results in an increase in blood pressure. Upon infusion of Big-ET-1, an increase in blood pressure takes place to the extent that ET-1 is produced therefrom by enzyme-catalysed cleavage of Big-ET-1. As a measurement of the enzyme-inhibiting action of the substances, their inhibitory action on the increase in blood pressure induced by infusion of Big-ET-1 was determined.
Rats (Sprague-Dawley, CRLD=Charles River) were anaesthetised with 1 ml/kg Rompun/Ketavet 1:1. A pressure transducer (Statham) was inserted into the carotid artery to measure blood pressure. One jugular vein was cannulated for administering the substance, and the other for administering Big-ET-1. After a 20-minute equilibration phase, the rats were administered the corresponding test substance of Formula I at a dose of as a rule 10 μmol/kg (if not stated otherwise), or a vehicle. Five minutes later, 0.5 nmol/kg Big-ET-1 was infused over a period of one minute. The systolic (SAP=systolic arterial pressure) and the diastolic (DAP=diastolic arterial pressure) blood pressure and the heart rate were each measured before administration of the substance, then immediately before administration of Big-ET and in each case every five minutes over a period of 30 minutes after Big-ET administration using the pressure transducer in known manner. The maximum Big-ET-induced increase in blood pressure and the maximum lowering of heart rate were calculated from the measured values as the difference between the value measured at the moment of maximum development of the Big-ET action (typically after 5 min.) and the value measured before Big-ET infusion. Furthermore, the integral of the blood pressure curve under the influence of Big-ET-1 was determined over 30 minutes (AUC=area under the curve).
The percentage inhibition of the maximum Big-ET-1 effect on the systolic arterial blood pressure (SAP) after i.v. administration of the test substances compared with administration of a vehicle is set forth in the following Table 3a:
Data given in table 3a as negative values indicate an inhibitory effect.

[2] = tested on: maximal SAP response to Big-ET; assay: In vivo i.v. potency (ID50) to inhibit maximal SAP response to Big-ET in anesthetized rats; parameters: species or system Rats (Sprague-Dawley); details: Rattus norvegicus, iv, dose at which the pressor effect of Big-ET was suppressed by 50%
Description: Rats (Sprague-Dawley, CRLD=Charles River) were anaesthetised with 1 ml/kg Rompun/Ketavet 1:1. A pressure transducer (Statham) was inserted into the carotid artery to measure blood pressure.
For intravenous testing, one jugular vein was cannulated for administering the substance, and the other for administering Big-ET-1. […] Five minutes later, 0.5 nmol/kg Big-ET-1 was infused over a period of one minute. SAP, DAP, and heart rate were measured before administration of the substance, then before administration of Big-ET, and subsequently every five minutes after Big-ET administration over a period of 30 minutes using the pressure transducer in known manner. The maximum Big-ET-induced increase in blood pressure was calculated from the measured values as the difference between the value measured at the moment of maximum development of the Big-ET action (typically after 5 min) and the value measured before Big-ET infusion. The dose at which the pressor effect of Big-ET was suppressed by 50% (ID50) was estimated from the inhibitory effects observed over the range of dosages tested (n>5 rats for each dose).
The intravenous potency of the test compounds of Formula I (given as ID50 values) to inhibit the maximal SAP response to Big ET in anesthetized rats is set forth in the following Table 3b: […]

[3] = target: T1, soluble, human recombinant NEP (Homo sapiens, UniProt P08473); assay: In-vitro investigation of the NEP inhibitory action (fluorescence-quenched Big-ET-1 analogue, HPLC); assay type: biochemical
T1 construct: soluble, human recombinant NEP; purchased Prof; Crine, University of Montreal, Canada
T1 sequence (P08473 52-750 limits assumed): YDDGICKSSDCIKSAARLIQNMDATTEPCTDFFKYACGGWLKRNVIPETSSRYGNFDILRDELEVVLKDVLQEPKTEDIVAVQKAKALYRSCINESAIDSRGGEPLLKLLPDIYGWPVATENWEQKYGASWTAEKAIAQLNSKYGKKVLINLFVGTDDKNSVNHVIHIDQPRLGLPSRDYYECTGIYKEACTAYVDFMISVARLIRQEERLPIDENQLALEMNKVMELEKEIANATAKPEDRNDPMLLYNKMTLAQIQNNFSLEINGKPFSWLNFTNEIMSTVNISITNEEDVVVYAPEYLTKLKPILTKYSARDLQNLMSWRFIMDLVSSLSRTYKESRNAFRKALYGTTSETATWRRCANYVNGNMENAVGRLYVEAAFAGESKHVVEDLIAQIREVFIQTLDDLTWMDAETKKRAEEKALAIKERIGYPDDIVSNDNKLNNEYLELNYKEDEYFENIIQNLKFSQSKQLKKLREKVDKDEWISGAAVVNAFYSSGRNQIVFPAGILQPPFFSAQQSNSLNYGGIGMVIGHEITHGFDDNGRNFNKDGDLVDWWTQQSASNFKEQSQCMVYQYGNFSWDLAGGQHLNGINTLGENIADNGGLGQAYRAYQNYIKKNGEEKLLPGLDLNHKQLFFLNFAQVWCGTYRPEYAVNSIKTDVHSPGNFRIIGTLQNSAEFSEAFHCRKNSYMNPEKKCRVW
Description: 1. In-Vitro Investigation of the NEP Inhibitory Action of the Substances
In this test, the measure of the inhibitory activity of the substances which was determined was their IC50 value. The IC50 value of a test substance having enzyme-inhibitory activity is that concentration of the test substance at which 50% of the enzymatic activity of the NEP is blocked.
70 μl test buffer, 10 μl enzyme working solution and 10 μl test substance solution were mixed in an Eppendorf vessel and preincubated at 37° C. for 15 minutes (=min.). Then 10 μl substrate stock solution was added and the test batch was incubated for 60 minutes at 37° C. The enzymatic reaction was then ended by 5-minutes' heating to 95° C. After centrifugation (Heraeus Biofuge B, 3 min.), the liquid supernatant was investigated by HPLC in accordance with the following specifications.
The substrate was separated from cleavage products by means of reversed-phase HPLC (CC 125/4 Nucleosil 300/5 C18 RP column with CC 8/4 Nucleosil 100/5 C18 precolumn, from Macherey-Nagel, Düren, Germany). For this, 60 μl of the test mixture was injected into the HPLC sample injection point and the column was then eluted at a flow rate of 1 ml/min with the following gradient:
Mobile Phase B: 100% acetonitrile+0.5M H3PO4
All the peptides were detected by absorption at 214 nm and by fluorescence with an excitation wavelength of 328 nm and an emission wavelength of 393 nm.
Upon enzymatic cleavage of the peptide, the fluorophore (=Mca) and the quencher end up in different peptide fragments, which reduces the effectiveness of the quench. […] The increasing fluorescence signal (corresponds to the area, A) of the HPLC peak of the peptide with the non-quenched Mca fluorophore is used for the further calculations. This signal was compared for samples with (=Ainhib) and without (=Acontrol) test substance of Formula I, and the value “% inhibition” was calculated on the basis of the respective peak areas according to the following formula: % inhibition=100*(1−Ainhib/Acontrol)
All the samples were measured in duplicates and average values were calculated therefrom. A standard inhibitor (10 nM thiorphan) and a solvent control (0.1% DMSO) were likewise measured as quality controls on each run. In this test model the test substances of Formula I listed in the following Table 1 had the IC50 values given below: […]

[4] = Plasma protein binding, equilibrium dialysis, rat plasma; assay type: in vitro ADME; details: rat plasma (10% for routine testing), 37° C., pH 7.4, 10% plasma (100% for low binders), read-out: % bound (rat plasma) (converted)
Description: (§1) Plasma protein binding of the test substances of Formula I was measured using a validated equilibrium dialysis method. The dialysis cells consisted of two halves separated by a semi-permeable membrane slightly tensioned in between. […] Before being used, the membranes were re-hydrated by soaking in water followed by the dialysis buffer. Plasma (10% for routine testing, and 100% for compounds found to have a low protein binding) was heated to 37° C. and adjusted to pH 7.4 before use. 5 μM test compound solutions (final dimethylsulfoxide concentration 0.5%) were prepared in isotonic phosphate buffer containing rat or human plasma. The plasma-containing solution was on one side of the membrane, and the plasma-free on the other. Incubations were performed overnight (10% plasma assay), or for 2 hours (100% plasma assay) in triplicate. The cells were mounted in a drive unit that rotated the cells and ensured a uniform equilibrium was obtained. The equilibrium was temperature controlled by the drive unit being immersed in a water bath at 37° C. At the end of the equilibration time, the cells were emptied. The solutions for each batch of compounds were combined into two groups (plasma-free and plasma-containing) then cassette analysed by LC-MS/MS using two sets of calibration standards for plasma-free (7 points) and plasma-containing solutions (6 points). The percentage of protein bound compound was calculated as follows: [formula] PC=sample concentration in protein containing side; PF=sample concentration in protein free side;

[5] = Plasma protein binding, equilibrium dialysis, human plasma; assay type: in vitro ADME; details: human plasma (10% for routine testing), 37° C., pH 7.4, 10% plasma (100% for low binders), read-out: % bound (human plasma) (converted)
Description: as §1

[6] = target: T2, His6-tagged hSEP ectodomain (Homo sapiens, UniProt Q495T6); assay: In vitro investigation of the hSEP-inhibitory action (fluorescence-quenched Big-ET-1 analogue, HPLC); assay type: biochemical
T2 construct: His6-tagged hSEP ectodomain; His6; purchased Innogenetics, Ghent, Belgium
T2 sequence (Q495T6 49-779 limits assumed): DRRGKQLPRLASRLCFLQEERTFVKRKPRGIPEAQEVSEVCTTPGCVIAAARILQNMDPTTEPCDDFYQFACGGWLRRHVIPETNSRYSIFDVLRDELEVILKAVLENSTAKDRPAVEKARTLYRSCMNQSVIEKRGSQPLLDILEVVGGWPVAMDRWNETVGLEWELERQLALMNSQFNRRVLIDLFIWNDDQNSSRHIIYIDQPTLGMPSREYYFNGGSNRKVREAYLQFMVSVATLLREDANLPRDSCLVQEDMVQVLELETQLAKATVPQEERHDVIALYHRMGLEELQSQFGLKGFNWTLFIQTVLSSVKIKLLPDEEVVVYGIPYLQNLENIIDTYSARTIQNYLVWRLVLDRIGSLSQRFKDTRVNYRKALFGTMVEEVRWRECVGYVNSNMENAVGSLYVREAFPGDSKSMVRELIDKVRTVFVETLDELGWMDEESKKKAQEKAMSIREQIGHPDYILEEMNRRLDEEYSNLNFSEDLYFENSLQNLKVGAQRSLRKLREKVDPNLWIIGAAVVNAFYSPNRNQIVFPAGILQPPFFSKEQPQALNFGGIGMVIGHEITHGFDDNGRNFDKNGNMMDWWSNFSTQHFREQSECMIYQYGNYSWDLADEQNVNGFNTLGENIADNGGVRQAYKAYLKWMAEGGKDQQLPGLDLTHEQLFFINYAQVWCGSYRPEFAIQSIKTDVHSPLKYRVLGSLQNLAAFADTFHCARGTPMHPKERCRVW
Description: 2. In Vitro Investigation of the hSEP-Inhibitory Action of the Substances
In this test, the measure of the inhibitory activity of the substances which was determined was their IC50 value. The IC50 value of a test substance having enzyme-inhibitory activity is that concentration of the test substance at which 50% of the enzymatic activity of the hSEP is blocked.
The test and the HPLC procedure were carried out analogously to the manner set forth above for determining the in vitro inhibitory action of the test substances on NEP. 10 nM phosphoramidon served as standard inhibitor in the HPLC procedure. In this test model the test substances of Formula I listed in the following Table 2 had the IC50 values given below: […]

| IC50 [3] [µM] | fraction unbound at 5 μM [4] | fraction unbound at 5 μM [5] | IC50 [6] [µM] | SMILES | change in vivo at 3 µmol/kg [1] [%] | ED50 [2] [µmol/kg] | change in vivo at 10 µmol/kg [1] [%] |
| --- | --- | --- | --- | --- | --- | --- | --- |
| – | – | – | – | CN(CCCCN)C(=O)CC(CC1(C(=O)NC2CCc3ccccc3N(CC(=O)O)C2=O)CCCC1)C(=O)O (racemic) [Example 75, 4-[(4-aminobutyl)(methyl)amino]-2-{[1-({[1-(carboxymethyl)-2-oxo-2,3,4,5-tetrahydro-1H-1-benzazepin-3-yl]amino}carbonyl)cyclopentyl]methyl}-4-oxobutanoic acid] | -52 | 0.1 | – |
| – | – | – | – | CNCCN(C)C(=O)CC(CC1(C(=O)NC2CCc3ccccc3N(CC(=O)O)C2=O)CCCC1)C(=O)O (racemic) [Example 68, 2-{[1-({[1-(carboxymethyl)-2-oxo-2,3,4,5-tetrahydro-1H-1-benzazepin-3-yl]amino}carbonyl)cyclopentyl]methyl}-4-{methyl[2-(methylamino)ethyl]amino}-4-oxobutanoic acid] | – | 0.7 | -108 |
| 0.009 | 0.31 | 0.6 | – | CC(C)N(C)C(=O)CC(CC1(C(=O)N[C@H]2CCc3ccccc3N(CC(=O)O)C2=O)CCCC1)C(=O)O (single isomer, unassigned) [Example 63] | – | 0.08 | – |
| – | – | – | – | CN(CCCCCN)C(=O)CC(CC1(C(=O)NC2CCc3ccccc3N(CC(=O)O)C2=O)CCCC1)C(=O)O (racemic) [Example 78, 4-[(5-aminopentyl)(methyl)amino]-2-{[1-({[1-(carboxymethyl)-2-oxo-2,3,4,5-tetrahydro-1H-1-benzazepin-3-yl]amino}carbonyl)cyclopentyl]methyl}-4-oxobutanoic acid] | -82 | < 1 | – |
| 0.015 | – | – | 0.012 | CCN(CCCN)C(=O)CC(CC1(C(=O)NC2CCc3ccccc3N(CC(=O)O)C2=O)CCCC1)C(=O)O (racemic) [Example 67, 4-[(3-aminopropyl)(ethyl)amino]-2-{[1-({[1-(carboxymethyl)-2-oxo-2,3,4,5-tetrahydro-1H-1-benzazepin-3-yl]amino}carbonyl)cyclopentyl]methyl}-4-oxobutanoic acid] | – | 0.5 | -109 |
